Test results reported in article PMC6125551 (Antimicrobial Agents and Chemotherapy, 2018).
Where two headings read alike, the source gives them in different places.

What was measured:
[1] = clinical; details: male, human, 500 mg
Method: (§1) Study 1 (protocol 001) was a phase 1, randomized, double-blind, placebo-controlled, rising single- and multiple-dose study conducted at a single center that investigated relebactam in healthy adult men. The study was conducted in four parts, and all doses were administered intravenously (i.v.) in a total volume of 100 ml over 30 min.
(§2) In each panel, in all periods (except period 4), subjects were randomized to receive a placebo (n = 2) or relebactam (n = 6).
(§3) The plasma was mixed with a stabilizer containing morpholineethanesulfonic acid buffer and ethylene glycol before storage at −70°C. […] The assay utilized hydrophilic interaction chromatography (HILIC) and tandem mass spectrometry. Stable isotope-labeled internal standards were used for all three analytes.
(§4) Pharmacokinetic parameters were determined from plasma and urine concentration-time data by a noncompartmental approach using Phoenix WinNonlin, version 6.3 (Certara LP, Princeton, NJ, USA). The CEOI (concentration at end of infusion) and Tmax (time to maximum concentration) were generated from each analyte's plasma concentration-time data. All AUC values were calculated using the linear trapezoidal method for ascending concentrations and the log trapezoidal method for descending concentrations (calculation method options in WinNonlin). AUC0–∞ was calculated as the sum of AUC0–last and Cest, last/λz, where AUC0–last is the AUC from time 0 to the time of the last quantifiable concentration, Cest, last is the predicted concentration at the time of the last quantifiable concentration, and λz is the apparent terminal rate constant. […] At least three consecutive data points (excluding Cmax) in terminal phase were used for λz calculations. Clearance (CL) was calculated as dose/AUC0–∞.

[2] = Urine pharmacokinetics, single dose, study 2; details: both, human, CLR, range
Method: (§5) Study 2 (protocol 002) was a phase 1, randomized, double-blind, placebo-controlled study with three panels of healthy participants that included elderly men (panel L [n = 8]), elderly women (panel M [n = 8]), and adult women (panel N [n = 8]).
as §3
(§6) The amount of unchanged drug excreted in urine during a collection interval (Ae) was calculated by a cumulative sum of urine (concentration of unchanged drug × volume) per collection interval. The fraction of the dose excreted in urine (fe) was calculated as Ae/dose.

[3] = Urine pharmacokinetics, single dose, study 1 part I, healthy men; details: imipenem-cilastatin 500 mg alone, adult men from study 1
Method: as §2, §3, §6

[4] = for AUC(0-t) / half-life: male, human, in vivo
Method: (§7) Each panel was dosed sequentially, allowing for assessment of safety and tolerability before dose escalation.
as §3, §4

[5] = Plasma pharmacokinetics, single dose as 30-min i.v. infusion, study 1 part I, healthy men; details: for half-life / AUC(0-inf) / concentration at 30 min / clearance / Vd: male, human, plasma; for AUC(0-inf): AUC0–∞; for concentration at 30 min: CEOI; for clearance: CL; for Vd: Vz;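 for all read-outs here: plasma analyte levels quantified by HILIC with tandem mass spectrometry, parameters derived noncompartmentally in WinNonlin, AUC by linear-up log-down trapezoidal rule, clearance taken as dose over AUC0–∞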
Method: as §1, §2, §3, §4

[6] = clinical; details: male, human, in vivo
Method: as §7, §3, §4

[7] = clinical; details: male, human, in vivo; remark: listed apart in the source
Method: as §2, §3, §6

[8] = clinical; details: female, human, plasma, intravenous
Method: as §5, §3, §4

[9] = male, human, in vivo
Method: as §7, §3, §6

[10] = Safety and tolerability, single dose, study 1 part I; format: in vivo, human
Excerpt: The safety analysis comprised the all-subjects-as-treated (ASaT) population, which included those participants who received ≥1 dose of investigational drug.

[11] = Plasma pharmacokinetics, single dose, study 2 (elderly men, elderly women, adult women)
Method: as §5, §3, §4

[12] = clinical; details: male, human, in vivo, unbound CLR
Method: as §7, §3, §6

[13] = assumed for the calculation, no reference given; cited from earlier work
[14] = male, human, in vivo, 250 mg
Method: as §2, §3, §6

[15] = urine and plasma, intravenous, adult participants (men and women)
[16] = urine and plasma, intravenous, elderly participants (men and women)
[17] = intravenous, 25 mg, relebactam 25 mg alone, single dose
[18] = intravenous, 50 mg, relebactam 50 mg alone, single dose
[19] = intravenous, 250 mg, relebactam 250 mg alone, single dose
[20] = intravenous, 500 mg, relebactam 500 mg alone, single dose
[21] = intravenous, 1000 mg, relebactam 1,000 mg alone, single dose
[22] = intravenous, 1150 mg, relebactam 1,150 mg alone, single dose
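Throughout, for CEOI: plasma levels quantified by HILIC with tandem mass spectrometry and isotope-labeled internal standards, parameters derived noncompartmentally in WinNonlin, clearance equal to dose divided by AUC0-∞.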

## CC1(C)C[C@@H]1C(=O)N/C(=C\CCCCSC[C@H](N)C(=O)O)C(=O)O [Cilastatin]
[1]; in vivo
  AUC(0-inf): 114 ± 13.5 µM·h
  Vd: 16.5 ± 2.11 L
  concentration at 30 min: 101 ± 16.6 µM
  half-life: 0.92 ± 0.051 h
[2]; in vivo, adult participants (men and women)
  CL renal: 157 to 168 mL/min
[2]; in vivo, elderly participants (men and women)
  CL renal: 112 to 126 mL/min
[3]
  fe, least squares mean (95% CI): 88.5 (82.1, 94.9) %
[3]; male, human, in vivo, 500 mg, CLR, mean (95% CI)
  CL renal: 168 mL/min
[4]; 0 mg relebactam + 500 mg imipenem/cilastatin, panel I, day 1, N 1
  CEOI: 144 µM
[4]; 0 mg relebactam + 500 mg imipenem/cilastatin, panel J, day 1
  CEOI: 107 ± 6.53 µM
[4]; 0 mg relebactam + 500 mg imipenem/cilastatin, panel K, day 1
  CEOI: 104 ± 10.4 µM
[4]; 50 mg relebactam + 500 mg imipenem/cilastatin, panel C, day 1
  CEOI: 106 ± 12.0 µM
[4]; 250 mg relebactam + 500 mg imipenem/cilastatin, panel F, day 1
  CEOI: 103 ± 20.0 µM
[4]; 500 mg relebactam + 500 mg imipenem/cilastatin, panel H, day 1
  CEOI: 115 ± 21.9 µM
[4]; 500 mg relebactam + 500 mg imipenem/cilastatin, panel J, day 1
  CEOI: 98.5 ± 14.6 µM
[4]; AUC0-6, 0 mg relebactam + 500 mg imipenem/cilastatin, panel I, day 1, N 1
  AUC(0-t): 167 µM·h
[4]; AUC0-6, 0 mg relebactam + 500 mg imipenem/cilastatin, panel J, day 1
  AUC(0-t): 110 ± 7.17 µM·h
[4]; AUC0-6, 0 mg relebactam + 500 mg imipenem/cilastatin, panel K, day 1
  AUC(0-t): 126 ± 37.9 µM·h
[4]; AUC0-6, 50 mg relebactam + 500 mg imipenem/cilastatin, panel C, day 1
  AUC(0-t): 127 ± 24.8 µM·h
[4]; AUC0-6, 250 mg relebactam + 500 mg imipenem/cilastatin, panel F, day 1
  AUC(0-t): 110 ± 14.2 µM·h
[4]; AUC0-6, 500 mg relebactam + 500 mg imipenem/cilastatin, panel H, day 1
  AUC(0-t): 136 ± 22.5 µM·h
[4]; AUC0-6, 500 mg relebactam + 500 mg imipenem/cilastatin, panel J, day 1
  AUC(0-t): 106 ± 17.2 µM·h
[4]; Terminal t1/2, 0 mg relebactam + 500 mg imipenem/cilastatin, panel I, day 1, N 1
  half-life: 0.962 h
[4]; Terminal t1/2, 0 mg relebactam + 500 mg imipenem/cilastatin, panel J, day 1
  half-life: 0.862 ± 0.088 h
[4]; Terminal t1/2, 0 mg relebactam + 500 mg imipenem/cilastatin, panel K, day 1
  half-life: 0.908 ± 0.182 h
[4]; Terminal t1/2, 50 mg relebactam + 500 mg imipenem/cilastatin, panel C, day 1
  half-life: 1.01 ± 0.142 h
[4]; Terminal t1/2, 250 mg relebactam + 500 mg imipenem/cilastatin, panel F, day 1
  half-life: 0.998 ± 0.087 h
[4]; Terminal t1/2, 500 mg relebactam + 500 mg imipenem/cilastatin, panel H, day 1
  half-life: 1.01 ± 0.146 h
[4]; Terminal t1/2, 500 mg relebactam + 500 mg imipenem/cilastatin, panel J, day 1
  half-life: 0.874 ± 0.117 h

## C[C@@H](O)[C@H]1C(=O)N2C(C(=O)O)=C(SCCN=CN)C[C@H]12 [Imipenem]
[5]; intravenous, t1/2, observed, compared with relebactam
  half-life: 1.1 h
[1]; plasma, intravenous
  AUC(0-inf): 140 ± 16.7 µM·h
  clearance: 201 ± 21.4 mL/min
  concentration at 30 min: 102 ± 17 µM
  half-life: 1.13 ± 0.075 h
[6]
  AUC(0-t): 138 ± 15.3 µM·h
  clearance: 178 ± 16.1 mL/min
[7]; 500 mg
  CL renal: 106 ± 20.3 mL/min
[7]; 500 mg, CLR, mean (95% CI)
  CL renal: 108 mL/min
[2]; [15]
  CL renal: 98.6 to 108 mL/min
[2]; [16]
  CL renal: 67.6 to 80.9 mL/min
[8]
  AUC(0-inf): 132 ± 18.9 µM·h

## O=C(NC1CCNCC1)[C@@H]1CC[C@@H]2CN1C(=O)N2OS(=O)(=O)O [Relebactam]
[5]; [17]
  AUC(0-inf): 7.97 ± 1.67 µM·h
  concentration at 30 min: 4.42 ± 1.18 µM
  clearance: 155 ± 30.6 mL/min
  Vd: 18.3 ± 2.99 L
[5]; intravenous, 25 mg, t1/2, relebactam 25 mg alone, single dose
  half-life: 1.39 ± 0.246 h
[5]; [18]
  AUC(0-inf): 15.6 ± 2.73 µM·h
  concentration at 30 min: 9.04 ± 1.88 µM
  clearance: 157 ± 23.8 mL/min
  Vd: 20.5 ± 3.88 L
[5]; [19]
  concentration at 30 min: 45.4 ± 7.27 µM
  clearance: 148 ± 16.4 mL/min
  Vd: 20.8 ± 2.77 L
[5]; intravenous, 250 mg, t1/2, relebactam 250 mg alone, single dose
  half-life: 1.63 ± 0.129 h
[5]; [20]
  AUC(0-inf): 180 ± 25.7 µM·h
  concentration at 30 min: 101 ± 17.6 µM
  clearance: 135 ± 19.9 mL/min
  Vd: 19.1 ± 2.64 L
[5]; intravenous, 500 mg, t1/2, relebactam 500 mg alone, single dose
  half-life: 1.64 ± 0.141 h
[5]; [21]
  AUC(0-inf): 373 ± 51.9 µM·h
  concentration at 30 min: 209 ± 28.6 µM
  clearance: 130 ± 18.3 mL/min
  Vd: 20.6 ± 3.46 L
[5]; intravenous, 1000 mg, t1/2, relebactam 1,000 mg alone, single dose
  half-life: 1.84 ± 0.281 h
[5]; [22]
  AUC(0-inf): 396 ± 55.3 µM·h
  concentration at 30 min: 208 ± 18.3 µM
  clearance: 141 ± 18.8 mL/min
  Vd: 21.6 ± 2.69 L
[5]; intravenous, 1150 mg, t1/2, relebactam 1,150 mg alone, single dose
  half-life: 1.78 ± 0.225 h
[5]; intravenous, harmonic mean terminal half-life (t1/2), range, single dose, 25- to 1,150-mg dose range, healthy men
  half-life: 1.35 to 1.8 h
[5]; iv, terminal half-life (t1/2), range, single- or multiple-dose i.v. administration over 30 min, independent of dose
  half-life: 1.35 to 1.85 h
[5]; relebactam 250 mg alone, single dose
  AUC0–∞: 81.8 ± 9.07 µM·h
[9]
  net active secretion, share of total clearance: approximately 30%
[10]; alone or in combination with imipenem-cilastatin, across the dose ranges studied
  tolerability: well tolerated
[10]; single-dose cohort, part I, n = 16, with or without imipenem-cilastatin
  participants reporting ≥1 drug-related AEs: 50%
[6]; geometric mean terminal t1/2, range
  half-life: 1.42 to 1.85 h
[7]; 25 mg, CLR
  CL renal: 177 ± 29.4 mL/min
[7]; 50 mg, CLR
  CL renal: 166 ± 21.8 mL/min
[7]; 125 mg, CLR
  CL renal: 159 ± 19.6 mL/min
[7]; 125 mg, CLR, mean (95% CI)
  CL renal: 158 mL/min
[7]; 250 mg, CLR
  CL renal: 153 ± 16.5 mL/min
[7]; 500 mg, CLR
  CL renal: 129 ± 20.7 mL/min
[7]; 1000 mg, CLR
  CL renal: 127 ± 20.2 mL/min
[7]; 1150 mg, CLR
  CL renal: 137 ± 20.6 mL/min
[11]; adult women vs adult men (historic data from study 1)
  increase in AUC0–∞: 22%
[11]; elderly men vs adult men
  increase in mean plasma exposure: 41%
[11]; elderly women vs adult women
  increase in mean plasma exposure: 45%
[11]; elderly women vs elderly men
  increase in AUC0–∞: 25%
[2]; [15]
  CL renal: 106 to 158 mL/min
[2]; [16]
  CL renal: 69.6 to 89.2 mL/min
[12]
  CL renal at 7 days: 173 mL/min
[13]
  free fraction: 78%
[14]
  CLR: 144 ± 11.0 mL/min
